Assay results reported in patent publication US20160235806A1, “Novel Peptide Compound for Inhibiting Restenosis and Promoting Re-Endothelialization and Method for Preparing the Same” (Chonnam National University Hospital, priority 2014, published 2016).

Tested on: vascular smooth muscle cell (SMC)
Assay: Effect on proliferation of vascular smooth muscle cell (SMC), XTT assay
Assay type: cell-based
Settings: 1 uM; 1, 4, and 7 days; vs non-treated control that continuously grew until 7 days
Experimental: As cells used in a cell culture, the vascular smooth muscle cell (SMC) which is a smooth muscle cell, and the human umbilical vein endothelial cell (HUVEC) which is the cell for promoting vascular re-endothelialization were purchased from Korea Cell Line Bank, respectively. The cell culture was performed by culturing the vascular smooth muscle cell (SMC) and the human umbilical vein endothelial cell (HUVEC) in Dulbecoco's modified eagle medium (DMEM) with 10% fetal bovine serum (FBS) under conditions of 37° C. and 5% CO2. […]
(§1) 5×10^4 of SMC cells cultured according to Example 2 were cultured in the 24-well cell culture plate and then treated with 1 uM of the peptide compound prepared by Example 2 (hereinafter, referred to as ‘EVR-P’). […] After the reaction, 200 ul of the culture medium was transferred from each well to a 96 well cell culture dish, and degree of color change was measured from absorbance at a 450 nm wavelength by a spectroscopy.
as §1, with “the known Everolimus (EVR)(LC Laboratories).” for “the peptide compound prepared by Example 2 (hereinafter, referred to as ‘EVR-P’).”, “to the” for “to a”

CO[C@H]1C[C@@H]2CC[C@@H](C)[C@@](O)(O2)C(=O)C(=O)N2CCCC[C@H]2C(=O)O[C@H]([C@H](C)C[C@@H]2CC[C@@H](OCCO)[C@H](OC)C2)CC(=O)[C@H](C)/C=C(\C)[C@@H](O)[C@@H](OC)C(=O)[C@H](C)C[C@H](C)/C=C/C=C/C=C/1C [EVR, Everolimus]
SMC cell proliferation (XTT, absorbance at 450 nm): cell proliferation was inhibited
